Measurements published in PMC10005185, “Structure-guided engineering of a receptor-agonist pair for inducible activation of the ABA adaptive response to drought” (Science Advances, 2023).

Key:
[1] = target: T1, ΔNHAB1 with AtPYL5 (Arabidopsis thaliana, UniProt Q9FLB1); assay: PP2C inhibition assay, HAB1 with AtPYL5; assay type: biochemical; details: read-out: inhibition of HAB1
T1 construct: His; made in house
Method: (§1) His-tagged receptors and phosphatases were purified using nickel–nitrilotriacetic acid (Ni-NTA) affinity chromatography. Protein integrity was analyzed by SDS–polyacrylamide gel electrophoresis, followed by InstantBlue staining. Phosphatase activity was measured using p-Nitrophenyl Phosphate (pNPP) (25 mM) as substrate, 10 mM MnCl2,1 μM PP2C, and 2 μM of the indicated receptors. Proteins were incubated with the ligands for 10 min at room temperature. pNPP was then added to start the reactions, and the absorbance at 405 nm was monitored for 20 min in a ViktorX5 plate reader. Assays were repeated twice. For dose-response experiments, IC50 values were obtained with GraphPad Prism 9 using a nonlinear regression curve fit. Each ligand concentration was tested in triplicate. Phosphatase activity of ABI1 was measured using RRA(phosphoT)VA peptide as a substrate, as described ([27]).

[2] = target: AtHAB1ΔN with CsPYL1^5m (Citrus sinensis, UniProt A0A067E666, F137I/T135L/T153I/V112L/V168A); assay: PP2C inhibition assay, HAB1 with CsPYL1^5m; assay type: biochemical, Citrus sinensis (CsPYL1^5m); Arabidopsis thaliana (HAB1); details: IC50 for inhibition of HAB1 (ΔNHAB1) in the presence of CsPYL1^5m, pNPP as substrate
Method: as §1, with “Proteins were incubated with the ligands for 10 min at room temperature. pNPP was then added to start the reactions, and the absorbance at 405 nm was monitored for 20 min in a ViktorX5 plate reader.” left out

[3] = test system: tomato plants; assay: IR thermography of leaf temperature, tomato; assay type: in vivo, Solanum lycopersicum; details: 10 μM
Method: For experiments using N. benthamiana or S. lycopersium, 1-month-old plants grown under long-day conditions (16-hour light/8-hour dark) were sprayed with 10 mM MES (pH 5.7) + 0.02% Silwet L77 supplemented with either 50 μM ABA, or the indicated concentration of iSB07/iSB09 or 0.1% DMSO as a mock-treated control. IR images were taken using a FLIR E95 thermocamera 1 day after the treatment (for N. benthamiana) or 2 and 5 days (for S. lycopersicum). Quantification was performed using the FLIR tools software on fully expanded leaves by analyzing 10 sections per leaf. At least six plants per genotype and treatment were analyzed in each experiment. Experiments were repeated twice. The average plant temperature ± SD of all the plants for each treatment and genotype was calculated and used to report the increase in temperature produced by each treatment. Statistical comparisons among genotypes were performed by either pairwise t tests or one-way ANOVA.
Fig. S6. QB lacks bioactivity in tomato whereas iSB09 is
(A) Quantification of the leaf temperature difference at 2 and 5 days after spraying tomato plants with 0.1 % DMSO
(mock- treated control), 10 µM iSB09 or 10 µM QB.
Asterisk indicates p<0.001 (Student’s t test). Values show individual points and average ± SD (n=4 replicates for mock and chemical treatments). (B) IR-images of representative tomato plants at 2 days after being treated with 0.1 % DMSO
Photographs were taken with white light (leaf panel) or infrared thermography (right panel) using the camera FLIR
HAB1 phosphatase activity in presence of PYL4. IC50 values for iSB09 or QB-dependent inhibition of HAB1 by AtPYL4. Values (average of duplicates) show PP2C activity after incubation with the indicated concentration of ligand and AtPYL4 at 1:2 ratio (1 µM phosphatase:2 µM receptor).
(1 picture or pasted object on this page, not shown here)

[4] = test system: RAB18/RD29B gene expression; assay: RT-qPCR of RAB18/RD29B expression; design: species or system Arabidopsis thaliana; details: in vivo
Method: RNA was extracted from seedlings using NucleoSpin RNA Plant kit from Machery-Nagel, following the manufacturer’s instructions. Complementary DNA (cDNA) was synthesized from 1 μg of total purified RNA using 30 U of RevertAid Reverse Transcriptase (Thermo Fisher Scientific). Reverse transcription quantitative polymerase chain reaction (RT-qPCR) was performed using PyroTaq EvaGreen qPCR Master Mix 5X from Cultek, which includes EvaGreen Dye and carboxy-X-rhodamine (ROX) as a passive reference dye. The primer pairs used for this analysis were described previously ([42]). qPCR was performed in a QuantStudio 3 (Applied Biosystems). Relative quantification of gene expression data was carried out using the 2^−ΔΔCt or comparative Ct method. Expression levels were normalized using the Ct values obtained for the actin-8 gene. The presence of a single PCR product was further verified by dissociation analysis in all amplifications. The mean and SD of three independent experiments are shown.

[5] = test system: ABA-responsive markers; assay: RNA sequencing of ABA-responsive markers; assay type: in vivo, Arabidopsis thaliana; details: 5 μM iSB09, 3 hours
Method: Total RNA was extracted as indicated above. The quality of the samples was verified using Agilent 2100 Bioanalyzer. First-strand cDNA was prepared by an EasyScript One-Step gDNA Removal and cDNA Synthesis SuperMix (TransGen Biotech) with random hexamers. Sequencing of cDNA libraries was performed using the DNB-Seq technology at the Beijing Genomics Institute, producing at least 20 million clean reads per sample of paired-end 100-base pair read lengths. RNA-seq data analysis was carried out by the Bioinformatics core facility at Instituto de Biología Molecular y Celular de […]. After quality analysis of raw reads with FastQC (www.bioinformatics.babraham.ac.uk/projects/fastqc/), and quality trimming and adapter removal of raw reads with cutadapt (http://journal.embnet.org/index.php/embnetjournal/article/view/200), clean read pairs longer than 20 nucleotides were mapped to TAIR10 arabidopsis Col-0 reference genome using HISAT2 with default parameters, and nonuniquely mapped pairs were discarded with SAMtools. The number of read counts that uniquely mapped to each arabidopsis gene (Araport11 annotation) was obtained with HTSeq-count. Genes lacking at least 1 TPM ([…]) in the three replicates of at least one of the two conditions were filtered out, and differential expression analysis of the remaining genes was done with DESeq2. […]

AtHAB1ΔN with CsPYL1^5m, sequence (A0A067E666 1-209 V112L/T135L/F137I/T153I/V168A): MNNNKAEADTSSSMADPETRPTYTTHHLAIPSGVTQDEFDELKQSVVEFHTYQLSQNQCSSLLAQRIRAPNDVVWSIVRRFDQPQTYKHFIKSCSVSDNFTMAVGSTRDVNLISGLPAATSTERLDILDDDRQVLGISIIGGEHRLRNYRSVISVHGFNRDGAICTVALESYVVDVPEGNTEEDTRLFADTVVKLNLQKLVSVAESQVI
AtHAB1ΔN with CsPYL1^5m, sequence (Q9CAJ0 179-511 partner): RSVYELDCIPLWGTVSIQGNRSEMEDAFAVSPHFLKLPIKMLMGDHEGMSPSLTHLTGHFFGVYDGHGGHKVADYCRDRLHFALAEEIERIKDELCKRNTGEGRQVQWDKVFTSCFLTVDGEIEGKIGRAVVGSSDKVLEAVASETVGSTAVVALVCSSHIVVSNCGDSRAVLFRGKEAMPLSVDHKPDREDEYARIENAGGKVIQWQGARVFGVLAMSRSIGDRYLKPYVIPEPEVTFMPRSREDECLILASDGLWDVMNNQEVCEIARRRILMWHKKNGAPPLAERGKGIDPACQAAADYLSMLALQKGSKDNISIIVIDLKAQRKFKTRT
T1 sequence (Q9FLB1 whole entry, stated change not applied): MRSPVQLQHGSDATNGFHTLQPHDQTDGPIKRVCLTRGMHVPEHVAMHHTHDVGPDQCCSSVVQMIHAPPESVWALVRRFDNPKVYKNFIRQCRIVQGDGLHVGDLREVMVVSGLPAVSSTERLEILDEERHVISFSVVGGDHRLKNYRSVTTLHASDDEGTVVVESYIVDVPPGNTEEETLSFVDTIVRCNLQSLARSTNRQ

CCn1c(=O)cc(C)c2cc(CNS(=O)(=O)c3ccccc3)ccc21 [iSB09]
inhibition at 1 µM [1]: 60 to 70% | IC50 [2]: 316 nM | bioactivity in tomato (leaf temperature) ([3]; 2 and 5 days after spraying): active | persistence of the effect on leaf temperature after spraying ([3]; tomato): up to 5 days | RAB18/RD29B up-regulation in CsPYL1^5m plants relative to WT plants [4]: markedly higher | increase of regulation of ABA-responsive markers in CsPYL1^5m background relative to WT [5]: 8- to 10 fold
